The text below walks through data of patent US20220380371A1, “MLL1 INHIBITORS AND ANTI-CANCER AGENTS” (NOVARTIS AG, priority 2019, published 2022).

In assay [1] the target is wild type MLL1 four-member complex (MLL1-4C) (Homo sapiens, UniProt Q03164). The assay can be described thus: MLL1 LC-MS Assay. It counts as biochemical. Particulars: read-out: LCMS. A digest of the protocol: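 Compound pre-incubated 20 min with MLL1-4C and SAM, then H3[1-21]-biotin (H3K4me0) substrate added; final 30 nM enzyme, 2.5 μM SAM, 10 μM peptide in Tris pH 8.0 with MgCl2, DTT, Tween 20, BSA. After 120 min at rt, TFA-quenched SAH quantified by LC-MS/MS with d4-SAH; IC50 from dose-response fit.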

Assay [2] has as its target wild type MLL1 five-member complex (MLL1-5C) (Homo sapiens, UniProt Q03164). The assay can be described thus: MLL1 Flashplate Assay. In kind it is biochemical. The conditions noted are these: read-out: MLL1 flash plate. As to the method:
MLL1 Flashplate Assay To assess the compound potency in MLL1 Flashplate assay, compounds were serially diluted 3-fold in DMSO to obtain a total of twelve concentrations. Then the test compounds at each concentration (250 nL of each) were transferred by Mosquito into Corning #3675 384-well plate. Solutions (15 μL) of 4.2 nM wild type MLL1 five-member complex (MLL1-5C) in the assay buffer (20 mM Tris-HCl, pH 8.0, 0.01% Tween 20, 1 mM DTT, 0.01% BSA) were added to the wells. A 10 μL solution of 2.5 μM of the peptide substrate H3K4me0 (histone H3[1-21]-Biotin) and 1.25 μM ^3H-SAM in the reaction buffer was then added to initiate each reaction. The final components in the reaction solution include 2.5 nM MLL1-5C, 0.5 μM ^3H-SAM, and 1 μM H3K4me0 with varying concentration of the compounds. A positive control consisted of 2.5 nM MLL1-5C, 0.5 μM ^3H-SAM, and 1 μM substrate in the absence of the test compound, and a negative control consisted of 0.5 μM ^3H-SAM, and 1 μM substrate only. Each reaction was incubated at rt for 90 min, then stopped by addition of 5 μL per of quench solution (0.5 mM SAM in assay buffer). 25 μL of each reaction solution was transferred to FlashPlate streptavidin 384-well microplate (PerkinElmer). After at least 1 h incubation at rt, the wells were washed three times with 0.1% Tween-20 in dH2O using the BioTek plate washer. The plates were then read in MicroBeta (PerkinElmer). The radioactive readouts were then normalized based on the values coming from the positive and negative controls to give percent enzyme activities. The data were then fit to a dose response equation using the program Helios to get the IC50 values of the test compounds.

Assay [3] has as its system H3K4me3 in MV4-11 cells. The assay can be described thus: MV4-11 H3K4me3 Cellular ELISA Assay. It counts as cell-based. The conditions noted are these: Homo sapiens, MV4-11, 48 h. A digest of the protocol:
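MV4-11 cells were treated for 48 h with 12-point 1:3 compound dilutions (from 10 mM stock), then histones were acid-extracted with 0.5M HCl and neutralized. H3K4me3 and total H3 were measured by HRP chemiluminescent ELISA, and inhibition versus DMSO after H3 normalization was curve-fitted for IC50.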

For assay [4], the system named is MV4-11 cells. The assay can be described thus: MV4-11 6-Day Cell Growth CTG (CellTiter-Glo) Assay. Particulars: Homo sapiens, MV4-11, 144 h, MV4-11 cell growth CellTiter-Glo, 6 days. It counts as cell-based. A digest of the protocol:
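MV4-11 AML cells (RPMI 1640, 10% FBS) seeded at 300 cells/well and exposed for 6 days at 37 °C to a 12-point, 1:3 compound series starting at 50 μM final. Viable cells read by CellTiter-Glo luminescence; percent inhibition versus DMSO-only wells fitted to dose-response curves for IC50.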

Bounds are passed on as bounds.

Regarding `Nc1ncnc2c1ncn2Cc1cc(F)ccc1N1CC[C@](N)(C(=O)NC2CC2)C1` [Example 14], the IC50 in assay [1] was over 100 nM; in assay [2], over 100 nM; in assay [3], under 1900 nM; in assay [4] it was 2000 to 3000 nM.

For `Nc1ncnc2c1ncn2Cc1c(N2CC[C@](N)(C(=O)NC3CC3)C2)ccc2c1OC(F)(F)O2` [Example 15], the IC50 in assay [1] was under 50 nM; in assay [2], under 60 nM; in assay [3] it was under 1900 nM; in assay [4] it was under 2000 nM.

Consider `NC(=O)[C@@]1(N)CCN(c2cc(Cl)cc(-c3cccc(C4CCCCC4)c3)c2Cn2cnc3c(N)ncnc32)C1` [Example 16], for which the IC50 was over 100 nM in assay [1], over 100 nM in assay [2], under 1900 nM in assay [3] and under 2000 nM in assay [4].

As for `C=CC(=O)N1CCN(C(=O)[C@@]2(N)CCN(c3ccc(F)c(CC)c3Cn3cnc4c(N)ncnc43)C2)CC1` [Example 17], the IC50 in assay [1] was under 50 nM; in assay [2], under 60 nM; in assay [3], under 1900 nM; in assay [4], under 2000 nM.

For the compound `Nc1ncnc2c1ncn2Cc1c(Br)cc(Cl)cc1N1CC[C@](N)(c2nc[nH]n2)C1` [Example 18, (R)-9-(2-(3-amino-3-(1H-1,2,4-triazol-3-yl)pyrrolidin-1-yl)-6-bromo-4-chlorobenzyl)-9H-purin-6-amine], the IC50 was under 50 nM in assay [1], under 60 nM in assay [2], under 1900 nM in assay [3] and under 2000 nM in assay [4].

As to `Nc1ncnc2c1ncn2Cc1c(Br)cc(Cl)cc1N1CC[C@](N)(CO)C1` [Example 19], the IC50 in assay [1] is 50 to 100 nM; in assay [2], under 60 nM; in assay [3] it was under 1900 nM; in assay [4], 2000 to 3000 nM.

As for `Nc1ncnc2c1ncn2Cc1c(Br)c(F)c2c(c1N1CC[C@](N)(C(=O)NC3CC3)C1)OCC2` [Example 20], the IC50 in assay [1] is under 50 nM; in assay [2] it was under 60 nM; in assay [3], under 1900 nM; in assay [4], under 2000 nM.

As for `Nc1ncnc2c1ncn2Cc1c(N2CCC(N)(c3ccccn3)C2)ccc(F)c1C(F)(F)F` (stereo not shown) [Example 22], the IC50 in assay [1] was 50 to 100 nM; in assay [2] it was 60 to 100 nM; in assay [3], under 1900 nM; in assay [4], under 2000 nM.

For the compound `Nc1ncnc2c1ncn2Cc1c(N2CC[C@](N)(c3ccccn3)C2)ccc(F)c1C(F)(F)F` [Example 23], the IC50 is under 50 nM in assay [1], under 60 nM in assay [2], under 1900 nM in assay [3] and under 2000 nM in assay [4].

In the case of `Nc1ncnc2c1ncn2Cc1c(Br)cc2c(c1N1CCC(N)(C(=O)NC3CC3)C1)OCO2` (stereo not shown) [Example 31], the IC50 in assay [1] is under 50 nM; in assay [2], under 60 nM; in assay [3], under 1900 nM; in assay [4], under 2000 nM.

For `COC[C@@]1(N)CCN(c2cc(Cl)cc(Br)c2Cn2cnc3c(N)ncnc32)C1` [Example 32, (R)-9-(2-(3-amino-3-(methoxymethyl)pyrrolidin-1-yl)-6-bromo-4-chlorobenzyl)-9H-purin-6-amine], the IC50 in assay [1] is over 100 nM; in assay [2] it was 60 to 100 nM; in assay [3], over 3000 nM; in assay [4], over 3000 nM.

On to `Nc1ncnc2c1ncn2Cc1c(Br)cc(Cl)c(Cl)c1N1CC[C@](N)(C(=O)NC2CC2)C1` [Example 43], for which the IC50 is 50 to 100 nM in assay [1], under 60 nM in assay [2], over 3000 nM in assay [3] and over 3000 nM in assay [4].

Consider `Nc1ncnc2c1ncn2Cc1c(Br)c(Cl)c(Cl)c(Cl)c1N1CCC(N)(C(=O)NC2CC2)C1` (stereo not shown) [Example 44], for which the IC50 is 50 to 100 nM in assay [1], under 60 nM in assay [2], under 1900 nM in assay [3] and over 3000 nM in assay [4].
